Experimental data taken from US20230322789A1, “PYRAZOLOPYRIDAZINONE COMPOUND, AND PHARMACEUTICAL COMPOSITION AND USE THEREOF” (BroadenBio Co., Ltd., priority 2020, published 2023).

What follows are compounds tested against HPK1 (Homo sapiens (Human), UniProt Q92918) (assay: HPK1 kinase activity inhibition test (ADP-Glo, luminescence)). Settings: HPK1 5 nM, ATP 2 μM, read-out: IC50, inhibitory effects of compounds on HPK1 kinase activity.
Assay type: biochemical
Description: 1. HPK1 Kinase Activity Inhibition Test
The kinase activity of HPK1 is manifested as activity of autophosphorylation and phosphorylation of downstream substrates. In the process of autophosphorylation, additional substrates are not required, and ATP is consumed to generate ADP. The amount of the product was measured by ADP-Glo reagent and luminescence method to reflect kinase activity.
Test compounds: compounds prepared in the examples of this application.
Prepare compound stock solution: dissolve the compound to be tested in 100% DMSO to make a 10 mM stock solution;
Prepare 4× Kinase Reaction Buffer:
Prepare 2×HPK1 Kinase Solution:
Dilute the stock solution of the compound to be tested by 5 times with […], make a 4-fold equal dilution in a 96-well dilution plate, add 1 μL of the compound to 49 µL of kinase reaction buffer, and shake on a microplate shaker for 20 minutes. Transfer 2 μL of […] kinase solution to 384 reaction plate, add 1 μL of the test compound to the 384 reaction plate (Greiner, 784075), centrifuge for 1 minute (1000 rpm/min), incubate at 25° C. for 10 minutes. Transfer […] of the 4×ATP mixture to a 384 reaction plate, centrifuge for 1 minute (1000 rpm/mm), and incubate at 25° C. for 60 minutes. In the reaction system, the final concentration of DMSO was […]. Transfer 4 μL of ADP-Glo to a 384 reaction plate, centrifuge for 1 minute (1000 rpm/min), and incubate at 25° C. for 40 minutes. Transfer 8 μL detection solution to a 384 reaction plate, centrifuge for 1 minute (1000 rpm/min), and incubate at 25° C. for 40 minutes. The […] signal was read using a Biotek multi-function plate reader, and the […] (half inhibitory concentration) of the compound was obtained using a four-coefficient nonlinear fitting formula.

Chain of HPK1 (Q92918 whole entry): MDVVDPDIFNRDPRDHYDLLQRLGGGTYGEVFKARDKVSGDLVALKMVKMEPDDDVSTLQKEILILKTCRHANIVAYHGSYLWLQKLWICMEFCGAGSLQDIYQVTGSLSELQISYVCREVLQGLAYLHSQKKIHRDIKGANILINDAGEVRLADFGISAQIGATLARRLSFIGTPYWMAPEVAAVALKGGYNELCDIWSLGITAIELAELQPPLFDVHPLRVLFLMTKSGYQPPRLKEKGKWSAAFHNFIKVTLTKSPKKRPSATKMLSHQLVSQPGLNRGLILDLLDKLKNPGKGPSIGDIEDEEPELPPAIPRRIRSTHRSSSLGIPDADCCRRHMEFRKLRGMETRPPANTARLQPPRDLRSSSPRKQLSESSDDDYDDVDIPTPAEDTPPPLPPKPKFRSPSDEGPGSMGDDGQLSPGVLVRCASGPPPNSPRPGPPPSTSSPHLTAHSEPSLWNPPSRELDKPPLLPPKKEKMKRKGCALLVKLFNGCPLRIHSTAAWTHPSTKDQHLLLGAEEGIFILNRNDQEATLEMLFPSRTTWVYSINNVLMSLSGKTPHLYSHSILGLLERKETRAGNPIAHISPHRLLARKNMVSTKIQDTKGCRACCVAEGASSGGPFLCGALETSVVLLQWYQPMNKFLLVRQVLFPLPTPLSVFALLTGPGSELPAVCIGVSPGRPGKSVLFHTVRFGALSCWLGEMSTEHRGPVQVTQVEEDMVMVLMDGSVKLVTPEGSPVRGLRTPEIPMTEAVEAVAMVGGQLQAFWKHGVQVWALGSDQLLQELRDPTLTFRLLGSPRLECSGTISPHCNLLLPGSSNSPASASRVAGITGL

Row | IC50 | SMILES
1 | 50 to 500 nM | Cc1cccc(F)c1-n1nc2c(-c3ccc(N4CCS(=O)(=O)CC4)nc3)n[nH]c2cc1=O [Compound 104, 3-(6-(1,1-dioxidothiomorpholino)pyrid-3-yl)-5-(2-fluoro-6-methylphenyl)-1H-pyrazolo[4,3-c]pyridazin-6(5H)-one]
2 | 50 to 500 nM | Cc1cccc(F)c1-n1nc2c(-c3cnc4c(c3)CN(C)CC4)n[nH]c2cc1=O [Compound 187, 5-(2-fluoro-6-methylphenyl)-3-(6-methyl-5,6,7,8-tetrahydro-1,6-naphthyridin-3-yl)-1H-pyrazolo[4,3-c]pyridazin-6(5H)-one]
3 | 500 to 2000 nM | Cc1ccncc1-n1nc2c(-c3ccc(N4CCN(C)CC4)cc3)n[nH]c2cc1=O [Compound 47, 3-(4-(4-methylpiperazin-1-yl)phenyl)-5-(4-methylpyrid-3-yl)-1H-pyrazolo[4,3-c]pyridazin-6(5H)-one]
4 | 50 to 500 nM | COc1cc(F)cc(F)c1-n1nc2c(-c3ccc4c(c3)CN(C)CC4)n[nH]c2cc1=O [Compound 158, 5-(2,4-difluoro-6-methoxyphenyl)-3-(2-methyl-1,2,3,4-tetrahydroisoquinolin-7-yl)-1H-pyrazolo[4,3-c]pyridazin-6(5H)-one]
5 | 50 to 500 nM | Cc1cccc(F)c1-n1nc2c(-c3ccc4c(c3F)CN(C)CC4)n[nH]c2cc1=O [Compound 188, 3-(8-fluoro-2-methyl-1,2,3,4-tetrahydroisoquinolin-7-yl)-5-(2-fluoro-6-methylphenyl)-1H-pyrazolo[4,3-c]pyridazin-6(5H)-one]
6 | 500 to 2000 nM | Cc1cccc(F)c1-n1nc2c(-c3cccc(N4CCN(C)CC4)c3F)n[nH]c2cc1=O [Compound 207, 3-(2-fluoro-3-(4-methylpiperazin-1-yl)phenyl)-5-(2-fluoro-6-methylphenyl)-1H-pyrazolo[4,3-c]pyridazin-6(5H)-one]
7 | 50 to 500 nM | COc1ccncc1-n1nc2c(-c3ccc(N4CCN(C)CC4)cc3)n[nH]c2cc1=O [Compound 48, 5-(4-methoxypyrid-3-yl)-3-(4-(4-methylpiperazin-1-yl)phenyl)-1H-pyrazolo[4,3-c]pyridazin-6(5H)-one]
8 | 50 to 500 nM | Cc1cccc(F)c1-n1nc2c(-c3cc4c(cc3F)CCN(C)C4)n[nH]c2cc1=O [Compound 189, 3-(6-fluoro-2-methyl-1,2,3,4-tetrahydroisoquinolin-7-yl)-5-(2-fluoro-6-methylphenyl)-1H-pyrazolo[4,3-c]pyridazin-6(5H)-one]
9 | 50 to 500 nM | Cc1cccc(F)c1-n1nc2c(-c3ccc4c(c3)CN(C(=O)CN3CCOCC3)CC4)n[nH]c2cc1=O [Compound 169, 5-(2-fluoro-6-methylphenyl)-3-(2-(2-morpholinoacetyl)-1,2,3,4-tetrahydroisoquinolin-7-yl)-1H-pyrazolo[4,3-c]pyridazin-6(5H)-one]
10 | ≤ 50 nM | Cc1cccc(F)c1-n1nc2c(-c3ccc(N4CCN5C(=O)OCC5C4)cc3)n[nH]c2cc1=O (stereo not shown) [Compound 122, 7-(4-(5-(2-fluoro-6-methylphenyl)-6-oxo-5,6-dihydro-1H-pyrazolo[4,3-c]pyridazin-3-yl)phenyl)tetrahydro-1H-oxazolo[3,4-a]pyrazin-3(5H)-one]
11 | ≤ 50 nM | COc1cccc(F)c1-n1nc2c(-c3ccc(C4CCN(C)CC4)cc3)n[nH]c2cc1=O [Compound 24, 5-(2-fluoro-6-methoxyphenyl)-3-(4-(1-methylpiperidin-4-yl)phenyl)-1H-pyrazolo[4,3-c]pyridazin-6(5H)-one]
12 | 50 to 500 nM | CCc1cccc(F)c1-n1nc2c(-c3cnc(N4CCN(C)CC4)nc3)n[nH]c2cc1=O [Compound 110, 5-(2-ethyl-6-fluorophenyl)-3-(2-(4-methylpiperazin-1-yl)pyrimidin-5-yl)-1H-pyrazolo[4,3-c]pyridazin-6(5H)-one]

Row | SMILES | IC50
13 | Cc1cccc(F)c1-n1nc2c(-c3ccc(N4CC5CC(C4)N5C)cc3)n[nH]c2cc1=O [Compound 91, 5-(2-fluoro-6-methylphenyl)-3-(4-(6-methyl-3,6-diazabicyclo[3.1.1]heptan-3-yl)phenyl)-1H-pyrazolo[4,3-c]pyridazin-6(5H)-one] | ≤ 50 nM
